# Read-outs that look alike come from different tables or passages of the source.
# Tests used:
# [1] = set-up: method as in PMID 17766353; conditions: cited from earlier work
# [2] = Solubility of DHE in GCA micelles (DHE fluorescence intensity); format: physicochemical; conditions: GCA 10 mM; Figure S6
# Procedure: S5 – Solubility of DHE in GCA micelles
# The solubility of DHE in the GCA micelles at the concentration of GCA used in the
# permeability assays (10 mM) was characterized from variations in DHE fluoresc ence in-
# tensity. The c once ntrati on of DHE was varied from 1 to 70 μM, with DHE bei ng ad ded to
# the GCA solution by squirti ng a small v olume of a DHE solution i n DMSO (% DMSO < 1
# %). The solutions obtai ned were optically clear and stable. However, the flu oresce nce in-
# tensity measured in a right-angle geometry was not linearly dependent on the intensity
# of light absorbed, Figure S6. This behaviour is in part due to geometr ical constraints due
# to the right-angle detection, with a significant fluoresce nce being emitted but not detected.
# present as small aggregates.
# Figure S6. Dependence of DHE fluorescence intensity ex/em = 324/372 nm on the intensity of light
# absorbed by DHE, when added to aqueous solutions containing 10 mM GCA. The hollow symbols
# correspond to DHE concentrations equal to 1, 5 and 10 μM, and the filled symbols correspond to
# DHE at 25, 50 and 70 μM. The line represents the best fit for the hollow symbols. […]
# [3] = Absorptive (apical to basolateral) DHE permeability assay through Caco-2 monolayers; format: in vitro ADME, human; conditions: human, Caco-2, pH 7.4, GCA 10 mM, absence of coffee, 6 h, read-out: DHE apparent permeability coefficient (Papp)
# Procedure: (§1) For transport experiments, the Caco-2 monolayers were prepared by seeding the cells at a density of 2.6 × 10^5 cells/cm^2 on 12-well polycarbonate Transwell^TM plates, following protocols previously defined for this assay. The cells were cultured until monolayer differentiation, for a total of 24 days, with culture medium being renewed every two days. On the day of the experiment, the culture medium was removed and replaced by HBSS medium pre-warmed at 37 °C (0.5 mL in the apical and 1.5 mL in the basolateral sides). The cell monolayers were placed in an incubator at 37 °C with a plate orbital shaker (IKA-Schüttler MTS4) at 50 rpm for 8 min. After two washing steps, the transepithelial electrical resistance (TEER) values were measured using a Millicell® ERS-2 voltmeter (Merck). The net TEER values (Ω cm^2) were obtained by subtracting the cell-free filter resistance and multiplying by filter area. All cell monolayers achieved TEER values exceeding 700 Ω cm^2 and were considered adequate for transport experiments.
# (§2) In assessing the influence of coffees samples on DHE absorption by intestinal epithelia, the transport was studied in the absorptive way; that is, in the apical (mimicking the intestinal lumen) to the basolateral (mimicking the bloodstream) direction. The solutions of DHE to be applied in the apical side were prepared as follows: first, the lyophilized coffee extracts (16-fold diluted) were dissolved with GCA (10 mM) solution in HBSS. Then, the mixtures were allowed to equilibrated overnight in a 37 °C in a water bath with shaking at 100 rpm. On the day of the experiment, DHE was added to the coffee/GCA mixture or to GCA only (Control) as an aliquot from a DMSO stock of 10 mM DHE. Addition was performed under vigorous vortex mixing to facilitate DHE interaction with the GCA micelles and prevent its precipitation. The final DHE concentration ranged from 10 to 100 μM, corresponding to ≤1% (v/v) DMSO. To allow evaluation of the cell monolayer integrity in each permeability assay, the paracellular marker Lucifer Yellow (LY) was also added to the final mixtures at a concentration of 20 μM. The solutions were maintained at 37 °C until application in the permeability assay, and where optically clear.
# (§3) It was therefore necessary to guarantee that the composition of the acceptor compartment in the permeability assay has an adequate ability to solubilize the sterol and allow its quantification. To approach the in vivo conditions in absorptive cholesterol transport, the acceptor compartment contained serum albumin at 100 µM, which corresponds to the concentration usually found in interstitial tissues. Serum albumin binds the cholesterol analog DHE with low to moderate affinity, KB = 5 × 10^4 [37], and at the concentration used DHE solubility is increased by at least an order of magnitude. To decrease the adsorption of DHE to the plate well and to the basolateral membrane, the transport media added to the basolateral side contained additionally 1% (v/v) DMSO. The presence of BSA and DMSO lead to improved sink conditions and higher DHE recoveries. The solutions from the acceptor compartments in the permeability assay where lyophilized directly in the wells of the permeability assay. A small amount of water was then added to facilitate detachment from the plate and solubilize salts and BSA. Ice-cold methanol was then added to dissolve DHE and precipitate the serum albumin. The DHE recovery efficiency when following this procedure was at least 90% (for details see Table S3 of the Supplementary Materials).
# (§4) To start the absorptive transport experiments, the HBSS on the apical side was removed and replaced with 450 μL of the test solution (emulsified DHE + LY, emulsified DHE + coffee + LY or LY solutions). After addition of the test solution, 50 μL was collected (corresponding to a time delay of about 2 min) and the inserts were moved to a 12-well plate containing 1.2 mL of the basolateral transport medium. […]
# Caco-2 monolayers [4] = test: as above; format: in vitro ADME, human
# Procedure: as §1, §2, §3, §4
# [5] = set-up: method as in PMID 4027244; conditions: aqueous media; cited from earlier work
# [6] = MTT cell viability assay (bile salts and coffee extracts); format: cell-based; conditions: human, Caco-2 cells, pH 7.4; for viability at 2 h: Figure S4 (incubation 2 h)
# Procedure: The influence of bile salts and coffee extracts on the Caco-2 cells viability was assessed with the MTT assay for determination of mitochondrial activity in active cells. Briefly, the cells were seeded in 96-well plates at a density of 1 × 10^4 cells/well in 200 μL of medium. Cells were then maintained in culture until confluence, for 96 h with medium renewal after 3 days. Solutions of individual bile salts GCDCA, GDCA, GCA and the combination of all three were prepared in the transport buffer HBSS (containing 25 mM HEPES, 0.35 g/L sodium bicarbonate, pH 7.4) at several concentrations above their critical micellar concentration (CMC). Two-fold serial dilutions of individual coffee extracts or mixtures with the bile salts were prepared by diluting the lyophilized extracts in HBSS or HBSS plus bile salts. The following controls were also included: 20% (v/v) of dimethyl sulfoxide (DMSO) in HBSS (positive control) and only HBSS (negative control). The cells were incubated for 6 h with test samples or controls (200 μL). Then, the cells were washed with PBS and incubated with 150 μL of MTT diluted in medium (0.5 mg/mL) for 4 h at 37 °C. Finally, the medium was discarded, and the formazan crystals produced by active cells were solubilized with dimethyl sulfoxide (150 μL) for 15 min under continuous stirring. The absorbances were measured at 570 nm in a Synergy HT Microplate Reader (BioTek Instruments, Inc., Winooski, VT, USA). All conditions were performed in triplicate. Results are expressed as a percentage of cell viability relative to the negative control.
# [7] = 50 mM bile salt concentration; cited from earlier work
# [8] = set-up: method as in PMID 27079626, PMID 22569559; conditions: cited from earlier work
# Caco-2 monolayers [9] = test: Lucifer Yellow paracellular permeability through Caco-2 monolayers (cell monolayer integrity); format: in vitro ADME, human
# Procedure: as §1, §2
# To start the absorptive transport experiments, the HBSS on the apical side was removed and replaced with 450 μL of the test solution (emulsified DHE + LY, emulsified DHE + coffee + LY or LY solutions). After addition of the test solution, 50 μL was collected (corresponding to a time delay of about 2 min) and the inserts were moved to a 12-well plate containing 1.2 mL of the basolateral transport medium. The plate was kept at 37 °C under stirring at 50 rpm for a total period of 6 h, with the assays being performed with either a single point sampling or three-points with 2 h sampling intervals. During the three-point sampling assay, 25 μL of the apical compartment was withdrawn at 2 and 4 h and replaced with fresh HBSS. At each time point indicated, the insert was also moved to another 12-well plate containing fresh basolateral medium (transfer sampling). At the end of the experiment (t6h), the inserts were transferred into empty wells and 50 μL were collected from the apical compartment and the remaining solution was decanted and stored. The 12-well plates with the samples of the basolateral compartments were frozen (−18 °C) and lyophilized. The same procedure was also applied to the aliquots of the apical side. All samples were then stored in a humidity-controlled environment until analysis.
# The paracellular permeability of each cell monolayer was assessed by the quantification of LY transport from the apical and basolateral sides. For the samples from the apical side, aliquots of 50 μL were withdrawn at the beginning and end of the permeation experiment. The samples were diluted 30-fold and 100 µL were transferred to a 96-wells plate with clear bottom and black sides (Thermo Scientific Nunc). […]
# [10] = average over Table 2 samples (DHE 10, 50 and 100 µM)
# [11] = multi-time point assay, LY 20 µM alone or with DHE 10 µM emulsified by GCA 10 mM, without or with coffee extract (16-fold diluted), n = 2
molecule,measurement,setting,value
"CC(C)[C@@H](C)C=C[C@@H](C)[C@H]1CC[C@H]2C3=CC=C4C[C@@H](O)CC[C@]4(C)C3=CC[C@]12C [DHE, ergosta-5,7,9(11),22-tetraen-3β-ol]",characteristic rate constant for desorption from membranes,[1]; liquid disordered phase,0.001 s⁻¹
same,characteristic rate constant for desorption from membranes,[1]; liquid ordered phase,6.9e-05 s⁻¹
same,DHE emulsified by GCA,[2],up to 10 µM
same,"Papp at 6 h, 50 µM",[3]; 50 µM DHE,0.0017 ×10⁻⁶ cm/s
same,"Papp at 6 h, 100 µM",[3]; 100 µM DHE,0.026 ×10⁻⁶ cm/s
same,DHE in the acceptor (basolateral) compartment,"Caco-2 monolayers [4]; DHE 10 µM apical, transfer sampling at 2, 4 and 6 h, detection limit 1.6 pmol",not detected
same,fraction of DHE that disappears from the apical transport media immediately after addition to the cell monolayers,"Caco-2 monolayers [4]; DHE 10 µM, GCA 10 mM, about 2 min, control (no coffee) or with coffee brew diluted 16 times",18.5 ± 3.9%
same,additional decrease of DHE in suspension in the apical compartment,"Caco-2 monolayers [4]; DHE 10 µM, GCA 10 mM, at 4 and 6 h incubation",about 2%
same,amount of DHE extracted from the cells,"Caco-2 monolayers [4]; end of permeability assay (6 h), DHE 10 µM, GCA 10 mM, control or with coffee brew",16.3 ± 4.7%
same,estimated critical aggregation concentration,[5],25 nM
"C[C@H](CCC(=O)NCC(=O)O)[C@H]1CC[C@H]2[C@@H]3[C@H](O)C[C@@H]4C[C@H](O)CC[C@]4(C)[C@H]3C[C@H](O)[C@]12C [GCA, glycocholic acid]","viability at 6 h, 15 mM","[6]; GCA 15 mM, 6 h exposure, relative to HBSS control",80%
same,viability at 2 h,[6]; GCA in HBSS at concentrations ≤12.5 mM,> 90%
same,capacity to emulsify cholesterol,[7],1.0 mM
same,critical micelle concentration (CMC),[8],6.5 mM
"CC(CCC(=O)NCC(=O)O)C1CCC2C3C(O)CC4CC(O)CCC4(C)C3CCC12C (stereo not drawn) [GCDCA, glycochenodeoxycholic acid]",capacity to emulsify cholesterol,[7],1.3 mM
same,critical micelle concentration (CMC),[8],1.6 mM
"CC(CCC(=O)NCC(=O)O)C1CCC2C3CCC4CC(O)CCC4(C)C3CC(O)C12C (stereo not drawn) [GDCA, glycodeoxycholic acid]",viability at 2 h,"[6]; GDCA in HBSS, all tested concentrations (1.56–50 mM)",< 10%
same,capacity to emulsify cholesterol,[7],up to 3 mM
same,critical micelle concentration (CMC),[8],1.7 mM
Lucifer yellow CH di-potassium salt [LY],"Papp of LY, average value",Caco-2 monolayers [9]; [10],0.13 ×10⁻⁶ cm/s
same,"amount of LY transported over the 6 h incubation, average value",Caco-2 monolayers [9]; [10],0.8%
same,Papp of LY (×10^−6),"Caco-2 monolayers [9]; multi-time point assay, last time interval of 2 h, LY alone or with DHE 10 µM/GCA 10 mM, without or with coffee extract, n = 2",0.64 ×10^−6 cm/s
same,% Transport of LY 0–2 h,Caco-2 monolayers [9]; [11],1.6%
same,% Transport of LY 2–4 h,Caco-2 monolayers [9]; [11],0.9%
same,% Transport of LY 4–6 h,Caco-2 monolayers [9]; [11],1.3%
same,% Transport of LY 6 h,"Caco-2 monolayers [9]; single time point 6 h, LY only",1.6%
same,Papp of LY (×10^−6),"Caco-2 monolayers [9]; single time point 6 h, LY only",0.27 ×10^−6 cm/s
